Source: patent US7883713B2, “Topical application of thiazolyl amides” (AiCuris GmbH & Co. KG, priority 2001, dated 2011)

Columns and labels:
HSV-2 [1] = assay: Zosteriform spread model, percutaneous HSV-2 infection; format: in vivo, hairless mice (C3H/TifBom-hr); conditions: for efficacy of topical treatment, in words: 2% by weight suspension in 30% isopropyl myristate, 70% ethanol; for Pathology index (cumulative): day 0 to day 21, 10 animals
Method: To form a 2% by weight suspension, the active ingredients are mixed with 30% by weight isopropyl myristate/70% by weight of ethanol and sonified in a glass tube in an ultrasonic bath at 15° C. for 15 min.
To produce the ointment preparation, wool alcohol ointment complying with DAB 9 is employed. The active ingredient is suspended in a molten mixture of 0.5 parts by weight of cetyl stearyl alcohol (quality complying with DAB 9), 6 parts by weight of wool wax alcohol (quality complying with DAB 9) and 93.5 parts by weight of white petrolatum (quality complying with DAB 9). The mixture is stirred while cooling to room temperature (about 21° C.).
To produce a so-called “PEG isogel” preparation, the active ingredient is suspended or dissolved in the melt a mixture of lower molecular weight polyethylene glycol (PEG) and higher molecular weight PEG.
A further gel preparation employed is a polyacrylate gel (so-called “carbogel”) which consists of 1 part by weight of Carbopol 974 P NF (manufacturer BF Goodrich, USA), […], 5 part by weight of 5% by weight (m/m) sodium hydroxide solution and 89 parts by weight of water. The preparation is produced by rubbing the Carbopol with the isopropanol, adding the active ingredient, and dispersing the mixture in water. The sodium hydroxide solution is added stepwise with stirring. A gel is formed.
6-week old female hairless mice (C3H/TifBom-hr) are purchased from a commercial breeder (M&B A/S, Denmark) and infected with HSV one week later. The animals are anesthetized with diethyl ether (Merck) in a leakproof glass vessel. For the dermal infection, the skin on the right flank or in the neck region of the animal is scratched 10× crosswise with a sterile needle (0.6×25 mm). The skin pretreated in this way is inoculated with 10 μl of virus suspension (1×10^6 pfu HSV-2G; 1.5×10^6 p fu HSV-lwalki). The animals are inspected each day, and the pathology index is determined by means of the following scale: 0: no visible signs of infection, 1: blistering, 2: slight spread in the dermatome (shingles), 3: large areas affected (shingles), 4: confluent shingles bands, 5: paralysis of the extremities, 6: death. The particular pathology index of the group on the particular day is calculated by forming the average for all the animals in the group. The cumulative pathology index is calculated by totalling the pathology indices for individual days. The infection leads to death of 90-100% of the untreated animals due to a generalized infection with prominent central nervous symptoms an average of between 5 and 8 days. Moribund animals are euthanized. […]

HSV-2 [2] = assay: Ocular herpes model, HSV-2 infection; format: in vivo, mice (BALB/cABom); conditions: for number of survivors of 10 infected animals: HSV-2, day 16 after infection; for number of survivors of 10 infected animals / Pathology index HSV-2 infection (cumulative): topical ophthalmic 2% by weight suspension 5x a day, day 0 to day 4; for Pathology index HSV-2 infection (cumulative): day 0 to day 16, 10 animals; for efficacy of topical treatment (eye drops), in words: ocular HSV infection, efficacy applies to HSV-2
Method: (§1) To form a 2% by weight suspension, the active ingredients are mixed with Liquifilm eyedrops (Allergan, Ettlingen, Germany) (1 ml containing polyvinyl alcohol 14 mg, and as excipient chlorobutanol ½ H2O 5.25 mg, sodium chloride) and sonified in a glass tube in an ultrasonic bath at 15° C. for 15 min.
(§2) 6-week old female mice, strain BALB/cABom (weight 19 g) are purchased from a commercial breeder (M&B A/S, Denmark) and infected with HSV one week later. The animals are anesthetized in a leakproof glass vessel with diethyl ether (Merck). For the ocular infection, the cornea of the right eye is lightly scratched three times horizontally and three times vertically with a sterile needle (0.4×20 mm). The cornea pretreated in this way is inoculated with 5 μl of virus suspension (5×10^7 pfu HSV-2G, 7.5×10^7 pfu HSV-lwalki). The infected animals are checked each day and examined for signs of an HSV infection (blepharitis, keratitis, encephalitis). The pathology index is set at 1 for affected animals, and the pathology index is set at 0 for symptom-free animals. The particular pathology index of the group on the particular day is calculated by summation for all the animals in the group. The cumulative pathology index is calculated by totalling the pathology indices on individual days. The infection leads to the death of 90-100% of untreated animals due to a generalized infection with prominent central nervous symptoms an average of between 5 and 8 days. Moribund animals are euthanized. The treatment takes place starting 3 h after the infection 5× a day for 5 days by instilling 5 μl of a 2% by weight active ingredient suspension in Liquifilm© eye drops (Allergan, Ettlingen, Germany) (1 ml containing polyvinyl alcohol 14 mg, and as excipient chlorobutanol ½ H2O 5.25 mg, sodium chloride) into the infected right eye of the animal.

HSV-1 = assay: Ocular herpes model, HSV-1 infection; format: in vivo, mice (BALB/cABom); conditions: for number of survivors of 10 infected animals: HSV-1, day 16 after infection; for number of survivors of 10 infected animals / Pathology index HSV-1 infection (cumulative): topical ophthalmic 2% by weight suspension 5x a day, day 0 to day 4; for Pathology index HSV-1 infection (cumulative): day 0 to day 16, 10 animals; for efficacy of topical treatment (eye drops), in words: ocular HSV infection, efficacy applies to HSV-1
Method: as §1, §2

[3] = HSV-2, right flank, 2% by weight suspension in 30% isopropyl myristate/70% ethanol on skin 2x a day, day 0 to day 4

**Q.** With Cc1nc(N(C)C(=O)Cc2ccc(-c3ccccc3F)cc2)sc1S(N)(=O)=O [N-[5-(Aminosulfonyl)-4-methyl-1,3-thiazol-2-yl]-2-(2′-fluoro[1,1′-biphenyl]-4-yl)-N-methylacetamide] as the compound, how does the “efficacy of topical treatment, in words” value (HSV-2 [1]; HSV-2, right flank) read?
**A.** Its value is “extensive efficacy”.

**Q.** What about the “Pathology index (cumulative)” value (HSV-2 [1]; [3]) of the same compound?
**A.** The value was 0.2.

**Q.** Which results are given for Cc1nc(N(C)C(=O)Cc2ccc(-c3ccccn3)cc2)sc1S(N)(=O)=O [N-[5-(Aminosulfonyl)-4-methyl-1,3-thiazol-2-yl]-N-methyl-2-[4-(2-pyridyl)phenyl]acetamide]?
**A.** number of survivors of 10 infected animals (HSV-2 [2]): 9; Pathology index HSV-2 infection (cumulative) (HSV-2 [2]): 7; efficacy of topical treatment (eye drops), in words (HSV-2 [2]): extensive efficacy; number of survivors of 10 infected animals (HSV-1): 10; Pathology index HSV-1 infection (cumulative) (HSV-1): 0; efficacy of topical treatment (eye drops), in words (HSV-1): extensive efficacy; efficacy of topical treatment, in words (HSV-2 [1]; HSV-2, right flank): extensive efficacy; Pathology index (cumulative) (HSV-2 [1]; [3]): 0.3; effect of short treatment on infection, in words (HSV-2 [1]; HSV-2G, neck region, 2% by weight PEG isogel 2x a day for 2 days (4 treatments)): completely suppressed; Pathology index (cumulative) (HSV-2 [1]; HSV-2G, neck region, 2% by weight PEG isogel on skin 2x a day, day 0 to day 1): 0.3; efficacy of topical treatment with various formulations, in words (HSV-2 [1]; HSV-2G, neck region, formulations with 3% by weight active ingredient): extensive efficacy

**Q.** Cc1nc(N(C)C(=O)Cc2ccc(-c3cccc(F)c3)cc2)sc1S(N)(=O)=O [N-[5-(aminosulfonyl)-4-methyl-1,3-thiazol-2-yl]-2-(3′-fluoro-1,1′-biphenyl-4-yl)-N-methylacetamide] was tested. Which “efficacy of topical treatment, in words” value (HSV-2 [1]; HSV-2, right flank) did it give?
**A.** The value was “extensive efficacy”.

**Q.** And the “Pathology index (cumulative)” value (HSV-2 [1]; [3])?
**A.** The value was 0.3.

**Q.** For Nc1nc2c(ncn2COCCO)c(=O)[nH]1 [Aciclovir, reference compound], which “number of survivors of 10 infected animals” value (HSV-2 [2]) is on record?
**A.** Its value is 1.

**Q.** And the “Pathology index HSV-2 infection (cumulative)” value (HSV-2 [2])?
**A.** Its value is 90.

**Q.** And the “number of survivors of 10 infected animals” value (HSV-1)?
**A.** The value was 7.

**Q.** And the “Pathology index HSV-1 infection (cumulative)” value (HSV-1)?
**A.** Its value is 33.

**Q.** Which “efficacy of topical treatment, in words” value (HSV-2 [1]; HSV-2, right flank) does the source give for Cc1nc(N(C)C(=O)Cc2ccc(-c3ccccc3)cc2)sc1S(N)(=O)=O [N-[5-Aminosulfonyl)-4-methyl-1,3-thiazol-2-yl]-2-[1,1′-biphenyl]-4-yl-N-methylacetamide] here?
**A.** Its value is “extensive efficacy”.

**Q.** What about the “Pathology index (cumulative)” value (HSV-2 [1]; [3]) of the same compound?
**A.** The value was 7.9.

**Q.** Which results are given for Cc1nc(N(C)C(=O)Cc2ccc(-c3cc(F)ccc3F)cc2)sc1S(N)(=O)=O [N-[5-(Aminosulfonyl)-4-methyl-1,3-thiazol-2-yl]-2-(2′,5′-difluoro-1,1′-biphenyl-4-yl)-N-methylacetamide]?
**A.** number of survivors of 10 infected animals (HSV-2 [2]): 4; Pathology index HSV-2 infection (cumulative) (HSV-2 [2]): 42; efficacy of topical treatment (eye drops), in words (HSV-2 [2]): extensive efficacy; number of survivors of 10 infected animals (HSV-1): 10; Pathology index HSV-1 infection (cumulative) (HSV-1): 0; efficacy of topical treatment (eye drops), in words (HSV-1): extensive efficacy
